Assay results reported in patent US20170056351A1, “COMPOSITION FOR INDUCING TUMOR IMMUNITY” (UNIVERSITY OF OCCUPATIONAL AND ENVIRONMENTAL HEALTH, JAPAN, priority 2014, published 2017).

Tested on: 9L gliosarcoma cells
Assay: In vivo radiosensitizing effect of ALA with multiple doses of ionizing radiation, tumor growth in rat subcutaneous tumor model
Protocol: As experimental animals, inbred male Fischer 344 rats (8 week old) (SLC, Inc. (Hamamatsu, Japan)) were used and were inoculated with 9L gliosarcoma cells. The inoculation was carried out in accordance with the procedures described in the following publications: Yamamoto J, Hirano T, Li S, Koide M, Kohno E, Inenaga C, et al.: Selective accumulation and strong photodynamic effects of a new photosensitizer, ATX-S10.Na (II), in experimental malignant glioma. Int J Oncol 27: 1207-13, 2005; Yamamoto J, Yamamoto S, Hirano T, Li S, Koide M, Kohno E, et al.: Monitoring of singlet oxygen is useful for predicting the photodynamic effects in the treatment for experimental glioma. Clin Cancer Res 12: 7132-9, 2006. In short, 9L gliosarcoma cells (1×10^6 cells) were transplanted into the skin on the dorsal side of each Fischer 344 rat, so as to produce a rat subcutaneous tumor model.
As described above, 9L gliosarcoma cells were inoculated into inbred Fischer 344 rats. […] Moreover, according to other previous studies, it had been reported that the dose of ALA by a single intravenous injection is 100 to 500 mg/kg body weight in the photodynamic therapy (PDT) using rodents (Yamamoto J, Yamamoto S, Hirano T, Li S, Koide M, Kohno E, et al.: Monitoring of singlet oxygen is useful for predicting the photodynamic effects in the treatment for experimental glioma. Clin Cancer Res 12:7132-9, 2006; Abels C, Heil P, Dellian M, Kuhnle G E, Baumgartner R, Goetz A E: In vivo kinetics and spectra of 5-aminolaevulinic acid-induced fluorescence in an amelanotic melanoma of the hamster. Br J Cancer 70: 826-33, 1994; Abels C, Fritsch C, Bolsen K, Szeimies R M, Ruzicka T, Goerz G, et al.: Photodynamic therapy with 5-aminolaevulinic acid-induced porphyrins of an amelanotic melanoma in vivo. J Photochem Photobiol B 40: 76-83, 1997; Bozzini G, Colin P, Betrouni N, Maurage C A, Leroy X, Simonin S, et al.: Efficiency of 5-ALA mediated photodynamic therapy on hypoxic prostate cancer: a preclinical study on the Dunning R3327-AT2 rat tumor model. Photodiagnosis Photodyn Ther 10: 296-303, 2013.). Accordingly, in the present study, the present inventors have determined the maximum dose of ionizing radiation to be 10 Gy, and the maximum dose of ALA to be 500 mg/kg body weight. […] Multiple intravenous injections into the caudal vein of rats had been technically difficult, but according to the experience of the present inventors, at maximum 5 times of injections had been possible. Accordingly, the present inventors have determined an optimal ionizing irradiation schedule, in which ionizing irradiation at a dose of 2 Gy/day and ALA multiple-dose administration at a dose of 100 mg/kg body weight/day were carried out for 5 consecutive days. After the subcutaneous tumor had grown to a size of 6 to 8 mm in diameter, the rats were randomly divided into four groups, and were then treated as follows:
control group (without treatments) (n=5); ALA multiple-dose administration group (n=5); ionizing radiation multiple-dose application group (RT) (n=7); and ALA multiple-dose administration+ionizing radiation multiple-dose application group. (5-ALA+RT) (n=7).
In a group to which only ALA was administered, only ALA (100 mg/kg) was administered to rats via caudal vein for 5 consecutive days. In a multiple-dose application group involving only ionizing radiation, rats were anesthetized and were then irradiated with an ionizing radiation of 2 Gy/day for 5 consecutive days (a total of 10 Gy). In an ALA multiple-dose administration+ionizing radiation multiple-dose application group, for 5 consecutive days, rats were intravenously administered with ALA (100 mg/kg), then 3 hours later, the rats were anesthetized, and an ionizing radiation of 2 Gy/day was applied to the subcutaneous tumor thereof in a dark place (a total of 10 Gy). Ionizing radiation was applied at a rate of 0.65 Gy/min, using an X-ray irradiation apparatus (MBR-1520R; HITACHI Engineering & Service Co., Ltd., Japan). […]

For `NCC(=O)CCC(=O)O` [ALA, 5-aminolevulinic acid], the “mean tumor growth inhibitory rate” value (16th day after treatment, ALA multiple-dose + ionizing radiation multiple-dose group compared with ionizing radiation multiple-dose group) was 42.5%, the “mean tumor volume, Day 0” value (ALA alone 100 mg/kg i.v. for 5 consecutive days, Day 0, mean ± SE, n = 5) was 143.9 ± 17.4 mm^3 and the “mean tumor volume, Day 8” value (ALA alone 100 mg/kg i.v. for 5 consecutive days, Day 8, mean ± SE, n = 5) was 865.4 ± 107.2 mm^3. The “mean tumor volume, Day 10” value (ALA alone 100 mg/kg i.v. for 5 consecutive days, Day 10, mean ± SE, n = 5) was 1403 ± 224.3 mm^3, the “mean tumor volume, Day 12” value (ALA alone 100 mg/kg i.v. for 5 consecutive days, Day 12, mean ± SE, n = 5) was 1842.6 ± 218.8 mm^3 and the “mean tumor volume, Day 14” value (ALA alone 100 mg/kg i.v. for 5 consecutive days, Day 14, mean ± SE, n = 5) was 2276.3 ± 192.8 mm^3. For the same molecule, the “mean tumor volume, Day 16” value (ALA alone 100 mg/kg i.v. for 5 consecutive days, Day 16, mean ± SE, n = 5) was 2869.4 ± 267.9 mm^3 and the “growth of the tumor in comparison to the control group” value (ALA multiple-dose administration alone, 16th day, p=0.0448) was “inhibited”.
